This is an account of results in patent US20130116251A1, “Novel HSP90 Inhibitor” (Nippon Kayaku Kabushiki Kaisha, priority 2005, published 2013).

One may read the IC50 as the midpoint of a concentration-inhibition curve.

For one assay, the target named is rHSP90. The experiment in a line: HSP90 binding assay (BIACORE SPR; inhibition of binding between rHSP90 and fixed herbimycin A). The settings on record: concentration inhibiting binding between rHSP90 (50 μg/mL) and fixed herbimycin A by 50%, BIACORE-X SPR; read-out: HSP90 inhibitory activity IC50. The text has this: The HSP90 binding assay system is a system for detecting the change of mass as SPR signal caused by the binding between herbimycin A fixed on a sensor chip and rHSP90 by BIACORE-X, in which 17-(6-amino hexylamino)herbimycin A is fixed through a carboxyl group on the surface of the sensor chip (CM5, BIACORE) on which carboxymethyldextran has been introduced. The method was according to the protocol of BIACORE. In addition, 17-(6-aminohexylamino)herbimycin A was synthesizes as described below.
rHSP90 (Stressgen Biotechnologies Corp., Victoria, BC Canada) at 50 μg/mL was exposed for 10 seconds to the surface of the sensor chip on which herbimycin A was fixed and the SPR signal (numerical value of interaction) was detected.
After mixing rHSP90 protein (5×10^−7M (50 μg/mL)) with the triazole derivative of the present invention, the mixture was exposed for 10 seconds to the surface of the sensor chip on which herbimycin A was fixed, and the SPR signal was measured by BIACORE-X.
Next, using following formula (1), the inhibitory activity (binding inhibition rate (%)) of the compound of the present invention to the binding between rHSP90 and fixed herbimycin A was obtained.
binding inhibition rate(%)=((b−s)/b)×100 Formula (1)
wherein b is the SPR signal when the compound of the present invention is not added to the sample: s is the SPR signal when the compound of the present invention is added to the sample.

Assay [1] relates to Human breast cancer cells (MCF7). Briefly: Antiproliferative activity on MCF7 cells (methylene blue method). The assay is classed as cell-based. The settings on record: read-out: Antiproliferative activity IC50. The protocol:
Human breast cancer cells (MCF7) were treated with samples of various concentrations of known HSP90 inhibitors (that is, geldanamycin, herbimycin, radicicol and PU3) and the compounds of the present invention for 72 hours to confirm the effect of the triazole derivatives of the present invention on the cell growth. The cell ratio after the drug treatment was evaluated by measuring 660 nm absorbance by a microplate reader (BioRad) after staining the cells with the methylene blue method.
Cells were distributed to wells of 96 well plates at 2000 cells per well and treated with drugs 24 hours later. Further, the medium was removed 72 hours later and the cells were fixed by adding 50 μl of methanol and standing at room temperature for 2 minutes. After removing methanol, 100 μl of a staining solution was added and stained for 30 minutes. After washing 3 times with 200 μl of distilled water, 3% HCl solution was added, and the 660 nm absorbance of methylene blue was measured by a microplate reader (BioRad).
Next, the antiproliferative activity rate (%) was obtained by the formula (2) below.
Antiproliferative activity rate(%)=((B−A)/B)×100 Formula (2)
wherein B is 660 nm absorbance of the sample when the compound of the present invention is not added, and A is 660 nm absorbance of the sample when the compound of the present invention is added.
From the concentration of the triazole derivative of the present invention and the antiproliferative activity rate, the concentration was obtained using the above formula, at which the cell growth was suppressed by 50% by comparing with the control, and termed an IC50 value.
The antiproliferative activity rate (%) was obtained for SH-b04, SH-b05 and SH-b06 described above by a similar manner to that of the triazole derivatives of the present invention.

Setting [2] is: MCF7 cells, 72 hours treatment, 660 nm absorbance after methylene blue staining.
[3] abbreviates: Homo sapiens, MCF7, 72 h, MCF7 cells, 72 hours treatment, 660 nm absorbance after methylene blue staining.

Counter-ions that a name gives are not always drawn. Like-named read-outs stand apart in the source and are kept apart here.

Turning to “4-bromo-6-{5-methylsulfanyl-4-[4-(morpholin-4-yl)-phenyl]-4H-[1,2,4]triazol-3-yl}-benzene-1,3-diol trifluoroacetate [SMe-d01-TF]”, the IC50 is 600 nM on rHSP90 and 5500 nM in assay [1] (setting [2]).

Consider `COc1cccc(-n2c(-c3cc(C(C)C)c(O)cc3O)n[nH]c2=O)c1` [OH-a09, 5-(2,4-dihydroxy-5-isopropyl-phenyl)-4-(3-methoxy-phenyl)-2,4-dihydro-[1,2,4]triazol-3-one], for which the values for the IC50 (on rHSP90; in assay [1] (setting [3])) were 160 nM and 6.7 nM, respectively.

With `COc1ccc(-n2c(-c3cc(C(C)C)c(O)cc3O)n[nH]c2=O)cc1OC` [OH-a10, 5-(2,4-dihydroxy-5-isopropyl-phenyl)-4-(3,4-dimethoxy-phenyl)-2,4-dihydro-[1,2,4]triazol-3-one], in assay [1] (setting [3]), the IC50 worked out at 14 nM.

Take `CC(C)c1cc(-c2n[nH]c(=O)n2-c2ccc(C(=O)O)cc2)c(O)cc1O` [OH-a12, 4-[3-(2,4-dihydroxy-5-isopropylphenyl)-5-oxo-1,5-dihydro-[1,2,4]triazol-4-yl]-benzoic acid]: the IC50 at rHSP90 was 190 nM; in assay [1] (setting [3]) it was over 20000 nM.

As for `CC(C)c1cc(-c2n[nH]c(=O)n2-c2ccc(C(=O)N3CCOCC3)cc2)c(O)cc1O` [OH-a14], the IC50 at rHSP90 was found to be 190 nM; in assay [1] (setting [3]), 720 nM.

Regarding `CC(C)c1cc(-c2n[nH]c(=O)n2-c2cnc(N3CCOCC3)nc2)c(O)cc1O` [OH-a17, 5-(2,4-dihydroxy-5-isopropyl-phenyl)-4-[2-(molpholin-4-yl)-pyrimidin-5-yl]-2,4-dihydro-[1,2,4]triazol-3-one], the IC50 on rHSP90 is 220 nM; in assay [1] (setting [3]) it was 26 nM.

As for `CC(C)c1cc(-c2n[nH]c(=O)n2N2CCCCC2)c(O)cc1O` [OH-a24•TFA, 5-(2,4-dihydroxy-5-isopropyl-phenyl)-4-piperidin-1-yl-2,4-dihydro-[1,2,4]triazol-3-one], the IC50 at rHSP90 worked out at 1100 nM; in assay [1] (setting [3]), 790 nM.

Consider `CC(C)c1cc(-c2n[nH]c(=O)n2CCN2CCOCC2)c(O)cc1O` [OH-a26•HCl, 5-(2,4-dihydroxy-5-isopropyl-phenyl)-4-(2-morpholin-4-yl-ethyl)-2,4-dihydro-[1,2,4]triazol-3-one], for which the figures for the IC50 (at rHSP90; in assay [1] (setting [3])) were 180 nM and 600 nM, respectively.

Take `CC(C)c1cc(-c2n[nH]c(=O)n2CCCN2CCOCC2)c(O)cc1O` [OH-a27, 5-(2,4-dihydroxy-5-isopropyl-phenyl)-4-[3-(molpholin-4-yl)-propyl]-2,4-dihydro-[1,2,4]triazol-3-one]: the IC50 at rHSP90 is 240 nM; in assay [1] (setting [3]) it was 220 nM.

For `CC(C)c1cc(-c2n[nH]c(=O)n2CCCN2CCCC2=O)c(O)cc1O` [OH-a30, 5-(2,4-dihydroxy-5-isopropyl-phenyl)-4-[3-(2-oxo-pyrrolidin-1-yl)propyl]-2,4-dihydro-[1,2,4]triazol-3-one], the IC50 at rHSP90 is 140 nM; in assay [1] (setting [3]), 1100 nM.

For `COCCn1c(-c2cc(C(C)C)c(O)cc2O)n[nH]c1=O` [OH-a32, 5-(2,4-dihydroxy-5-isopropyl-phenyl)-4-(2-methoxy-ethyl)-2,4-dihydro-[1,2,4]triazol-3-one], the IC50 at rHSP90 amounted to 350 nM; in assay [1] (setting [3]), 390 nM.

As to `CC(C)c1cc(-c2n[nH]c(=O)n2C(CO)CO)c(O)cc1O` [OH-a33, 5-(2,4-dihydroxy-5-isopropyl-phenyl)-4-(2-hydroxy-1-hydroxymethyl-ethyl)-2,4-dihydro-[1,2,4]triazol-3-one], the IC50 at rHSP90 came to 370 nM; in assay [1] (setting [3]) it was 3300 nM.

Regarding `CC#CCc1cc(-c2n[nH]c(=O)n2-c2ccc(CN3CCOCC3)cc2)c(O)cc1O` [OH-c02, 5-[5-(but-2-ynyl)-2,4-dihydroxy-phenyl]-4-[4-(morpholin-4-ylmethyl)-phenyl]-2,4-dihydro-[1,2,4]triazol-3-one], the IC50 at rHSP90 was 220 nM; in assay [1] (setting [3]), 140 nM.

Regarding `C#CCc1cc(-c2n[nH]c(=O)n2-c2ccc(CN3CCOCC3)cc2)c(O)cc1O` [OH-e02, 5-[2,4-dihydroxy-5-(prop-2-ynyl)-phenyl]-4-[4-(morpholin-4-ylmethyl)-phenyl]-2,4-dihydro-[1,2,4]triazol-3-one], the figures for the half-inhibitory concentration (IC50) (at rHSP90; in assay [1] (setting [3])) were 150 nM and 240 nM, respectively.

For the compound `CCCCn1c(Cc2cc(OC)c(OC)c(OC)c2)nc2c(N)ncnc21` [PU3, reference compound], the IC50 in assay [1] (setting [2]) came to 91000 nM.

For `CC(C)c1cc(-c2nnc(S(=O)(=O)CCCN(C)C)n2-c2ccc(O)cc2)c(O)cc1O` [SFN2-a11•TFA, 4-[5-(3-dimethylamino-propylsulfonyl)-4-(4-hydroxy-phenyl)-4H-[1,2,4]triazol-3-yl]-6-isopropyl-benzene-1,3-diol], the IC50 at rHSP90 came out at 430 nM; in assay [1] (setting [3]), 98 nM.

On to `CC(C)c1cc(-c2nnc(S(=O)(=O)CCCN(C)C)n2C(C)C)c(O)cc1O` [SFN2-a21•TFA], for which the IC50 at rHSP90 stood at 1000 nM; in assay [1] (setting [3]), 5200 nM.

For `CC(C)c1cc(-c2nnc(S(=O)(=O)CCCN3CCCCC3)n2C(C)C)c(O)cc1O` [SFN3-a21•TFA, 4-isopropyl-6-[4-isopropyl-5-(3-piperidine-1-yl-propane-1-sulfonyl)-4H-[1,2,4]triazol-3-yl]-benzene-1,3-diol], the IC50 at rHSP90 amounted to 1400 nM; in assay [1] (setting [3]) it was 4100 nM.

Take `COc1ccc(-n2c(-c3cc(C(C)C)c(O)cc3O)nnc2S(=O)(=O)Cc2cccnc2)cc1` [SFN4-a08, 4-isopropyl-6-[4-(4-methoxy-phenyl)-5-(pyridin-3-ylmethanesulfonyl)-4H-[1,2,4]triazol-3-yl]-benzene-1,3-diol]: the values for the IC50 (at rHSP90; in assay [1] (setting [3])) were 230 nM and 9900 nM, respectively.

On to `COc1ccc(-n2c(-c3cc(C(C)C)c(O)cc3O)nnc2S(=O)(=O)Cc2ccc[n+]([O-])c2)cc1` [SFN5-a08, 4-isopropyl-6-[4-(4-methoxy-phenyl)-5-(1-oxy-pyridin-3-ylmethanesulfonyl)-4H-[1,2,4]triazol-3-yl]-benzene-1,3-diol], for which the IC50 on rHSP90 is 430 nM; in assay [1] (setting [3]), 3900 nM.

As for `COc1ccc(-n2c(-c3cc(C(C)C)c(O)cc3O)nnc2S(=O)(=O)CC(=O)N(C)C)cc1` [SFN6-a08, 2-[5-(2,4-dihydroxy-5-isopropyl-phenyl)-4-(4-methoxy-phenyl)-4H-[1,2,4]triazol-3-sulfonyl]-N,N-dimethyl-acetamide], the IC50 came to 580 nM on rHSP90 and 550 nM in assay [1] (setting [3]).

Take `CC(C)c1cc(-c2nnc(S(C)(=O)=O)n2CCN2CCOCC2)c(O)cc1O` [SFN-a26, 4-isopropyl-6-[5-methanesulfonyl-4-(2-molpholin-4-ylethyl)-4H-[1,2,4]triazol-3-yl]-benzene-1,3-diol]: in assay [1] (setting [3]), the IC50 was over 20000 nM.

Consider `Oc1cc(O)c(-c2n[nH]c(=S)n2-c2ccc(N3CCOCC3)cc2)cc1Br` [SH-d01, 4-bromo-6-{5-mercapto-4-[4-(morpholin-4-yl)-phenyl]-4H-[1,2,4]triazol-3-yl}-benzene-1,3-diol], for which, in assay [1] (setting [3]), the IC50 came out at 580 nM.

With `COc1ccc(-n2c(SC)nnc2-c2cc(C(C)C)c(O)cc2O)cc1` [SMe-a08, 4-isopropyl-6-[4-(4-methoxy-phenyl)-5-methylsulfanyl-4H-[1,2,4]triazol-3-yl]-benzene-1,3-diol], in assay [1] (setting [3]), the IC50 came to 3100 nM.

Turning to `COC1=C2C[C@@H](C)C[C@H](OC)[C@H](O)[C@@H](C)/C=C(\C)[C@H](OC(N)=O)[C@@H](OC)/C=C\C=C(/C)C(=O)NC(=CC1=O)C2=O` [geldanamycin, reference compound], in assay [1] (setting [3]), the IC50 turned out to be 12 nM.

Turning to `CO[C@H]1[C@@H](OC)C[C@H](C)[C@@H](OC)C2=CC(=O)C=C(NC(=O)/C(C)=C/C=C\[C@H](OC)[C@@H](OC(N)=O)/C(C)=C/[C@@H]1C)C2=O` [herbimycin, reference compound], the half-maximal inhibitory concentration (IC50) in assay [1] (Homo sapiens, MCF7, 72 h) stood at 160 nM.

Turning to `C[C@@H]1C[C@H]2O[C@@H]2/C=C\C=C\C(=O)Cc2c(Cl)c(O)cc(O)c2C(=O)O1` [radicicol, reference compound], the IC50 in assay [1] (setting [3]) is 19 nM.
